How the values were obtained:
human PPAR α = biological target: T1, human PPAR α (Homo sapiens, UniProt Q07869); test: Luciferase assay using human PPAR α (PPAR α agonistic activity); assay type: cell-based; settings: compound 10 μM; CV-1 cells with Gal4-human PPAR α LBD chimera and luciferase reporter; luciferase activity of carbacyclin (10 μM) defined as 1.0
T1 construct: expressed in transfected cells; host or cells: CV-1 cells
T1 sequence (Q07869 167-468): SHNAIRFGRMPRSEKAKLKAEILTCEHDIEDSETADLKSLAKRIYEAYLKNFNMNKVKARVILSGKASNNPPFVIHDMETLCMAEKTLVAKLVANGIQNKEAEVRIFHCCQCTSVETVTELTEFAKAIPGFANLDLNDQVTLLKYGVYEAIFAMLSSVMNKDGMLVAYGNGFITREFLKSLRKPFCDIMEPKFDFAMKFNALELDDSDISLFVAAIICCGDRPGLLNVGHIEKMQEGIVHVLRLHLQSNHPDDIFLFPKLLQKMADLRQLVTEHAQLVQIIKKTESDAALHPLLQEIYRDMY

human PPAR γ = biological target: T2, human PPAR γ (Homo sapiens, UniProt P37231); test: Luciferase assay using human PPAR γ (PPAR γ agonistic activity); assay type: cell-based; settings: compound 10 μM; CV-1 cells with Gal4-human PPAR γ LBD chimera and luciferase reporter; luciferase activity of troglitazone (10 μM) defined as 1.0
T2 construct: expressed in transfected cells; host or cells: CV-1 cells
T2 sequence (P37231 204-505): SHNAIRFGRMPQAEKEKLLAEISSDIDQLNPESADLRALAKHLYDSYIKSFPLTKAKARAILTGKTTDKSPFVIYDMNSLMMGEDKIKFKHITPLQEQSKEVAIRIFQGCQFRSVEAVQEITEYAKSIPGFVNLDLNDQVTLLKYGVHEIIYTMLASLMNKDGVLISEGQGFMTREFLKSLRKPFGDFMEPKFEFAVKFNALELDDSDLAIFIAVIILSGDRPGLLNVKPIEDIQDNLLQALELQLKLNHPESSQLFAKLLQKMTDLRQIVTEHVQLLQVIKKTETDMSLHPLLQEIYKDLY

## O=C(O)CCCCC1=CCCc2c(OCc3ccc4ccccc4n3)cccc21 [comprative compound]
Human PPAR α
  Relative Activity to a positive control compound (carbacyclin = 1): 0.01
Human PPAR γ
  Relative Activity to a positive control compound (troglitazone = 1): 0.004

— patent US7220864B2, “Dihydronaphthalene derivative compounds and agent comprising the derivative as active ingredient” (Ono Pharmaceutical Co., Ltd., priority 2000, dated 2007)
